From patent US20110160206A1, “TRI-SUBSTITUTED PYRIMIDINE COMPOUNDS AND THEIR USE AS PDE10 INHIBITORS” (priority 2009, published 2011) come the findings set out here.

For this experiment, the target named is T1, PDE10 (PDE10A) (Bos taurus, UniProt A0A3Q1MHJ4).
T1 construct: isolated and prepared from bovine corpus striatum; from tissue; host or cells: bovine corpus striatum
T1 sequence (A0A3Q1MHJ4 1-1068): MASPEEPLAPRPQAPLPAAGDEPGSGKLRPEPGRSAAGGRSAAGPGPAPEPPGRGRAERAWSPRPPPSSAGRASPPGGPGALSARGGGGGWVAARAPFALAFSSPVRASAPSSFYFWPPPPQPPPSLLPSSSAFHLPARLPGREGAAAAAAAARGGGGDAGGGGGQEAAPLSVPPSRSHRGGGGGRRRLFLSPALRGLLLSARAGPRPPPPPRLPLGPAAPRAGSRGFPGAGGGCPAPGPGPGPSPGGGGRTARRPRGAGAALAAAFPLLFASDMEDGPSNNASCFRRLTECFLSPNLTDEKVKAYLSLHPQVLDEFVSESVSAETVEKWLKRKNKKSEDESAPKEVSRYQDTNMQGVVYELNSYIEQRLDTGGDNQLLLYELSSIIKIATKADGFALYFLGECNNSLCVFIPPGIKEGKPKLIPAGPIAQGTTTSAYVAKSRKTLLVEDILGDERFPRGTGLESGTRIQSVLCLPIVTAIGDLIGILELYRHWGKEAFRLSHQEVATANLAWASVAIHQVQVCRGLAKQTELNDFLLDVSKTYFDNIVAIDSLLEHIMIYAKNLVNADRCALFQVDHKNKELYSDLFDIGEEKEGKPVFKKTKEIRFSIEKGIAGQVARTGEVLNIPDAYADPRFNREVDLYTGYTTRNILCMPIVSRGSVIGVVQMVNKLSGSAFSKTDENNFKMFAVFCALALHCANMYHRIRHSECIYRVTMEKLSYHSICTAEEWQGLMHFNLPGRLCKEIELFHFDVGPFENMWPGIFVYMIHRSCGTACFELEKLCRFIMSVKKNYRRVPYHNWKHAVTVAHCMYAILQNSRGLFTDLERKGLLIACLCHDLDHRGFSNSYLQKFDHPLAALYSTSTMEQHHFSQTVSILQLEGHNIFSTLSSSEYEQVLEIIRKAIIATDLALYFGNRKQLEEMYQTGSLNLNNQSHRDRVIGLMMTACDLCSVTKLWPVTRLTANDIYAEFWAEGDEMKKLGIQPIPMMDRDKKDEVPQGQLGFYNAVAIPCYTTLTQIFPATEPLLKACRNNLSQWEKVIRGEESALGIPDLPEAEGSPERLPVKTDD
As to the kind of experiment: Measurement of PDE10 inhibitory activity (radiolabeled nucleotide PDE assay). Particulars: PDE10A from bovine corpus striatum; [3H]cAMP 7 nM final; room temperature 90 min. The format is biochemical. On the procedure:
(1) The enzyme PDE10 (PDE10A) was isolated and prepared from bovine corpus striatum, according to the methods described in references Fujishige et al., Eur. J. Biochem., vol. […] The enzyme solution obtained was used for a PDE assay.
Specifically, the measurements of the inhibitory activities were carried out in the following method.
(Method) The test compounds were dissolved in dimethyl sulfoxide (DMSO). […] The final concentration of cAMP in the reaction mixtures was 7 nM. The reaction mixtures were incubated at room temperature for 90 min under dark conditions. After incubation, the reaction was stopped by adding 100 μL of methanol and resultant solutions were applied to filter plate containing Dowex (1×8 200-400) and centrifuged. 50 μL of the eluate together with wash eluate with additional 100 μL methanol was collected in another plate and the radioactivity was measured with 250 μL of scintillant.
(2) The compounds in the Examples below were tested for PDE inhibition using the Method described above.

The structures appear in SMILES notation. Structures can show the parent of a compound that is named as a salt.

Turning to `CO[C@H]1CC[C@H](Nc2cc(N3CCCC3)nc(CCc3nc4cc(C(F)(F)F)ccc4nc3C)n2)CC1` [Example 4.003, N-(trans-4-methoxycyclohexyl)-2-{2-[3-methyl-7-(trifluoromethyl)quinoxalin-2-yl]ethyl}-6-pyrrolidin-1-ylpyrimidin-4-amine], the IC50 (commonly the point on the concentration scale where inhibition reaches its midpoint) was 0.031 nM.

`CN(c1cc(N2CCCC2)nc(/C=C/c2nc3ccccc3nc2N(C)C2CC2)n1)C1CCOCC1` [Example 1.101, N-cyclopropyl-N-methyl-3-((E)-2-{4-[methyl(tetrahydro-2H-pyran-4-yl)amino]-6-pyrrolidin-1-ylpyrimidin-2-yl}vinyl)quinoxalin-2-amine] displayed an IC50 of 0.46 nM.

Turning to `Cc1cc2nc(C)c(/C=C/c3nc(N[C@@H]4CCOC4)cc(N4CCCC4)n3)nc2cc1C` [Example 1.041, 6-pyrrolidin-1-yl-N-[(3R)-tetrahydrofuran-3-yl]-2-[(E)-2-(3,6,7-trimethylquinoxalin-2-yl)vinyl]pyrimidin-4-amine], it took 0.66 nM to reach half-maximal inhibition (IC50).

For the molecule `Cc1nc2ccc(F)cc2nc1/C=C/c1nc(NC2CCOCC2)cc(N2CCCC2)n1` [Example 1.050, 2-[(E)-2-(7-fluoro-3-methylquinoxalin-2-yl)vinyl]-6-pyrrolidin-1-yl-N-(tetrahydro-2H-pyran-4-yl)pyrimidin-4-amine hydrochloride], half-maximal inhibition (IC50) was put at 0.14 nM.

Molecule `Cc1nc2ccccc2nc1/C=C/c1nc(N[C@H]2CC[C@H](CO)CC2)cc(N2CCCC2)n1` [Example 1.024, [trans-4-({2-[(E)-2-(3-methylquinoxalin-2-yl)vinyl]-6-pyrrolidin-1-ylpyrimidin-4-yl}amino)cyclohexyl]methanol] came in with an IC50 of 0.039 nM.

`Cc1nc2ccc(OC(F)(F)F)cc2nc1/C=C/c1nc(N[C@H]2CC[C@H](O)CC2)cc(N2CCCC2)n1` [Example 1.084, trans-4-[(2-{(E)-2-[3-methyl-7-(trifluoromethoxy)quinoxalin-2-yl]vinyl}-6-pyrrolidin-1-ylpyrimidin-4-yl)amino]cyclohexanol]: the IC50 stood at 0.011 nM.

As for `Cc1nc2ccc(C(F)(F)F)cc2nc1/C=C/c1nc(N[C@@H]2CCS(=O)(=O)C2)cc(N2CCCC2)n1` [Example 1.074, N-[(3R)-1,1-dioxidotetrahydro-3-thienyl]-2-{(E)-2-[3-methyl-7-(trifluoromethyl)quinoxalin-2-yl]vinyl}-6-pyrrolidin-1-ylpyrimidin-4-amine], inhibition was half-maximal at 0.0033 nM (IC50).

`CO[C@H]1CC[C@H](Nc2cc(N3CCCC3)nc(/C=C/c3nc4ccc(F)cc4nc3C)n2)CC1` [Example 1.048, 2-[(E)-2-(6-fluoro-3-methylquinoxalin-2-yl)vinyl]-N-(trans-4-methoxycyclohexyl)-6-pyrrolidin-1-ylpyrimidin-4-amine dihydrochloride] gave an IC50 of 0.04 nM.

The molecule `Cc1nc2ccccc2nc1OCc1cc(NC2CCOCC2)nc(N2CCCC2)n1` [Example 6.001, 6-[(3-methylquinoxalin-2-yl)oxy]methyl-2-pyrrolidin-1-yl-N-(tetrahydro-2H-pyran-4-yl)pyrimidin-4-amine hydrochloride] displayed an IC50 of 0.22 nM.

As for `CN(C)c1nc2ccccc2nc1/C=C/c1nc(N2CCCC2)cc(N2CCOCC2)n1` [Example 1.095, N,N-dimethyl-3-[(E)-2-(4-morpholin-4-yl-6-pyrrolidin-1-ylpyrimidin-2-yl)vinyl]quinoxalin-2-amine], the IC50 turned out to be 0.79 nM.

In the case of `CN(C)c1nc2ccccc2nc1/C=C/c1nc(N[C@@H]2CCS(=O)(=O)C2)cc(N2CCCC2)n1` [Example 1.007, 3-[(E)-2-(4-{[(3R)-1,1-dioxidotetrahydro-3-thienyl]amino}-6-pyrrolidin-1-ylpyrimidin-2-yl)vinyl]-N,N-dimethylquinoxalin-2-amine], the IC50 was determined as 0.09 nM.

`COc1ccc2nc(C)c(/C=C/c3nc(NC4CCOCC4)cc(N4CCCC4)n3)nc2c1` [Example 1.078, 2[(E)-2-(7-methoxy-3-methylquinoxalin-2-yl)vinyl]-6-pyrrolidin-1-yl-N-(tetrahydro-2H-pyran-4-yl)pyrimidin-4-amine dihydrochloride] showed a 50% inhibitory concentration (IC50) of 0.047 nM.

Consider `Oc1nc2ccccc2nc1/C=C/c1nc(NC2CCOCC2)cc(N2CCCC2)n1` [Example 1.094, 3-{(E)-2-[4-pyrrolidin-1-yl-6-(tetrahydro-2H-pyran-4-ylamino)pyrimidin-2-yl]vinyl}quinoxalin-2-ol hydrochloride], for which the IC50 was 0.17 nM.

As for `COCCNc1cc(N2CCCC2)nc(/C=C/c2nc3ccccc3nc2N(C)C)n1` [Example 1.003, 3-((E)-2-{4-[(2-methoxyethyl)amino]-6-pyrrolidin-1-ylpyrimidin-2-yl}vinyl)-N,N-dimethylquinoxalin-2-amine], the half-maximal inhibitory concentration (IC50) came out at 0.6 nM.

`Cc1nc2ccccc2nc1/C=C/c1nc(N[C@H]2CC[C@](C)(O)CC2)cc(N2CCCC2)n1` [Example 1.020, trans-1-methyl-4-({2-[(E)-2-(3-methylquinoxalin-2-yl)vinyl]-6-pyrrolidin-1-ylpyrimidin-4-yl}amino)cyclohexanol] gave an IC50 of 0.073 nM.

On to `CN(C)c1nc2ccccc2nc1/C=C/c1nc(NC2CCOCC2)cc(N2CCCC2)n1` [Example 1.001, N,N-dimethyl-3-{(E)-2-[4-pyrrolidin-1-yl-6-(tetrahydro-2H-pyran-4-ylamino)pyrimidin-2-yl]vinyl}quinoxalin-2-amine dihydrochloride], for which the IC50 was 0.1 nM.

Molecule `Cc1nc2ccccc2nc1OCc1nc(N2CCCC2)cc(N(C)C2CCOCC2)n1` [Example 5.002, N-methyl-2-{[(3-methylquinoxalin-2-yl)oxy]methyl}-6-pyrrolidin-1-yl-N-(tetrahydro-2H-pyran-4-yl)pyrimidin-4-amine hydrochloride] displayed an IC50 of 0.61 nM.

Turning to `Cc1cc2ccccc2nc1/C=C/c1nc(N[C@@H]2CCS(=O)(=O)C2)cc(N2CCCC2)n1` [Example 1.093, N-[(3R)-1,1-dioxidotetrahydro-3-thienyl]-2-[(E)-2-(3-methylquinolin-2-yl)vinyl]-6-pyrrolidin-1-ylpyrimidin-4-amine], the IC50 was determined as 0.3 nM.

On to `CN(c1nc2ccccc2nc1/C=C/c1nc(NC2CCOCC2)cc(N2CCCC2)n1)C1CC1` [Example 1.010, N-cyclopropyl-N-methyl-3-{(E)-2-[4-pyrrolidin-1-yl-6-(tetrahydro-2H-pyran-4-ylamino)pyrimidin-2-yl]vinyl}quinoxalin-2-amine], for which the IC50 is 0.48 nM.

The molecule `Cc1cc2ccccc2nc1/C=C/c1nc(NC2CCOCC2)cc(N2CCCC2)n1` [Example 1.090, 2-[(E)-2-(3-methylquinolin-2-yl)vinyl]-6-pyrrolidin-1-yl-N-(tetrahydro-2H-pyran-4-yl)pyrimidin-4-amine] displayed an IC50 of 0.36 nM.

`Cc1ccc2nc(C)c(/C=C/c3nc(N[C@H]4CC[C@](C)(O)CC4)cc(N4CCCC4)n3)nc2c1` [Example 1.064, trans-4-({2-[(E)-2-(3,7-dimethylquinoxalin-2-yl)vinyl]-6-pyrrolidin-1-ylpyrimidin-4-yl}amino)-1-methylcyclohexanol] registered an IC50 of 0.048 nM.

For the molecule `CN(C)c1nc2ccccc2nc1/C=C/c1nc(N2CCCC2)cc(N(C2CCOCC2)C2CC2)n1` [Example 1.099, 3-((E)-2-{4-[cyclopropyl(tetrahydro-2H-pyran-4-yl)amino]-6-pyrrolidin-1-ylpyrimidin-2-yl}vinyl)-N,N-dimethylquinoxalin-2-amine], 0.1 nM corresponded to half-maximal inhibition (IC50).
